The assay has as its target T1, LRRK2 G2019S (Homo sapiens, UniProt Q5S007, G2019S).
T1 construct: purchased Thermo Fisher Scientific (Life Technologies) SelectScreen
Kind of assay: SelectScreen Adapta. Format: biochemical. The essentials: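 SelectScreen broad panel; activity (Z'LYTE, Adapta) plus binding formats. ATP: Km app for CSF1R Z'LYTE; 10 for CAMK1 Adapta. Readout = % per kinase.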

A word on the inhibition: it is the share of the control response that was lost under treatment. Higher therefore signals a strong effect.

T1 sequence (Q5S007 whole entry G2019S): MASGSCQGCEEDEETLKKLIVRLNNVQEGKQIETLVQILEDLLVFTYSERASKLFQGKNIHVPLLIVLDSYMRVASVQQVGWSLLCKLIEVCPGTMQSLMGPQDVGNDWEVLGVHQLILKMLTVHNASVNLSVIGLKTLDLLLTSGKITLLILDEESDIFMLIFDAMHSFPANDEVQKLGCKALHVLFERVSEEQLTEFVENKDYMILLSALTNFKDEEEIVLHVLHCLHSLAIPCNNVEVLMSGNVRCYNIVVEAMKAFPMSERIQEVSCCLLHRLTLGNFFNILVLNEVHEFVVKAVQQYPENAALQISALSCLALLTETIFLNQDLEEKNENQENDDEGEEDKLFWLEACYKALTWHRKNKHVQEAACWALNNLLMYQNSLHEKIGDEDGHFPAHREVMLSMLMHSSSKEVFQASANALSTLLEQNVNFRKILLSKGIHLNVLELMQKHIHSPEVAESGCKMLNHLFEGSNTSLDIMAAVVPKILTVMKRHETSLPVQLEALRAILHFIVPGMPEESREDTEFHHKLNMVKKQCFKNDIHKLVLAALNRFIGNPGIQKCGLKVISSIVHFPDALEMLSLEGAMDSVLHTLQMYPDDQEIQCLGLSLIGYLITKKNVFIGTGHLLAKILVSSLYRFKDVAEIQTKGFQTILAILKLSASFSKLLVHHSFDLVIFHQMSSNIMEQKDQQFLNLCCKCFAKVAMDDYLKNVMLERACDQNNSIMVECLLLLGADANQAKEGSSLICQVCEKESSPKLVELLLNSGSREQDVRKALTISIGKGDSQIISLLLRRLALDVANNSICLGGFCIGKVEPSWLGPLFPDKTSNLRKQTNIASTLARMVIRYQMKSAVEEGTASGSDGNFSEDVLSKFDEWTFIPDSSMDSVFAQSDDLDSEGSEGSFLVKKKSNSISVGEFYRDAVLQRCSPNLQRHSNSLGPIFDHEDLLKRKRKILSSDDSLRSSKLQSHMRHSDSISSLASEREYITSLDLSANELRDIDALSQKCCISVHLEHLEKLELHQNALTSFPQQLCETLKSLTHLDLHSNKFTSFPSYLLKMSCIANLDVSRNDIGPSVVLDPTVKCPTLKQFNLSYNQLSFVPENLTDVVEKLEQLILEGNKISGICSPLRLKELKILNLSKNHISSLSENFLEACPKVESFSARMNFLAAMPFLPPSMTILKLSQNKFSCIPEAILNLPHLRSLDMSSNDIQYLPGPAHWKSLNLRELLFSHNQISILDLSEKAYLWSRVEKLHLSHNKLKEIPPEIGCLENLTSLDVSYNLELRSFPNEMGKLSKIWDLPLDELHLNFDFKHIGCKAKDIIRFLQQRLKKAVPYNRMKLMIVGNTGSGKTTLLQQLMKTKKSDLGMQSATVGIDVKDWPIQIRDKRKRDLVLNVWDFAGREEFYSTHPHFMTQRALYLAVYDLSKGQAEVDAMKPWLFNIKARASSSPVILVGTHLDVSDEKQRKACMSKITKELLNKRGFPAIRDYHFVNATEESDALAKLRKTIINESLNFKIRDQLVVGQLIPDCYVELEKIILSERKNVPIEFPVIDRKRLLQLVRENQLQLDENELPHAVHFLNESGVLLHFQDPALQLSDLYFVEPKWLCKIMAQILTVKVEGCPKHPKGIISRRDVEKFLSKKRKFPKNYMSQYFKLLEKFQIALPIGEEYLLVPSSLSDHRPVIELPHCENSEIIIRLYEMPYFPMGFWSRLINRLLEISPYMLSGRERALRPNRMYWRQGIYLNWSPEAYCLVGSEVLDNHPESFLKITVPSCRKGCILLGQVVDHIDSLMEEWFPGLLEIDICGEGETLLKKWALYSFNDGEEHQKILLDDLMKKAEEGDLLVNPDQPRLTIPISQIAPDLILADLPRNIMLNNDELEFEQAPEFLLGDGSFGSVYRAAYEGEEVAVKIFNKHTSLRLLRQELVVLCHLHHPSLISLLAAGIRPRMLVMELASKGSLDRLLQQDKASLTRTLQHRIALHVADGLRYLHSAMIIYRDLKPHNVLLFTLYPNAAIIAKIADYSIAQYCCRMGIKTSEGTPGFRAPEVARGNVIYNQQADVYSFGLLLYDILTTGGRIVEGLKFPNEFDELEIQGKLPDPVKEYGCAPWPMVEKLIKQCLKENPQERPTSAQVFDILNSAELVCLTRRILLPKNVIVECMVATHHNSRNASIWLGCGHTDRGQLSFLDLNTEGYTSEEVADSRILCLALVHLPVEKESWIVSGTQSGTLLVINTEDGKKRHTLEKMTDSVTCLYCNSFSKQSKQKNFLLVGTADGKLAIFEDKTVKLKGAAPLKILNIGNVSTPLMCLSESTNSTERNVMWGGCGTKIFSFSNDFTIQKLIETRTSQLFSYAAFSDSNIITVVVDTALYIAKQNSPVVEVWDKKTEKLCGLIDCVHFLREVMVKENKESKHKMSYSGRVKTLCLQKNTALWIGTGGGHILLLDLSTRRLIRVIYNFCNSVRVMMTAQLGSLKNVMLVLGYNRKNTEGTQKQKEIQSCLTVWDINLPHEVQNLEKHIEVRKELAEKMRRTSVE

In the case of `CN(C(=O)CN1CCOCC1)c1ccc2sc3c(-c4cccc5c(=O)cc(N6CC7CCC(C6)O7)oc45)cccc3c2c1` [NU5455], 1 µM produced 3% inhibition.

Values taken from PMC6934184, “Selective DNA-PKcs inhibition extends the therapeutic index of localized radiotherapy and chemotherapy” (The Journal of Clinical Investigation, 2019).
